Assay results published in US8901133B2, “Heterocyclic compounds and uses thereof” (Infinity Pharmaceuticals, Inc., priority 2010, dated 2014).

Legend:
Balb/c splenic B cells = test: B cell activation and proliferation assay (Alamar Blue); format: cell-based; settings: Mus musculus, read-out: B cell prolif. IC50
Procedure: The ability of one or more subject compounds to inhibit B cell activation and proliferation is determined according to standard procedures known in the art. For example, an in vitro cellular proliferation assay is established that measures the metabolic activity of live cells. The assay is performed in a 96 well microtiter plate using Alamar Blue reduction. Balb/c splenic B cells are purified over a Ficoll-Paque™ PLUS gradient followed by magnetic cell separation using a MACS B cell Isolation Kit (Miletenyi). Cells are plated in 90 ul at 50,000 cells/well in B Cell Media (RPMI+10% FBS+Penn/Strep+50 uM bME+5 mM HEPES). A compound disclosed herein is diluted in B Cell Media and added in a 10 μl volume. Plates are incubated for 30 min at 37 C and 5% CO2 (0.2% DMSO final concentration). A 50 μl B cell stimulation cocktail is then added containing either 10 ug/ml LPS or 5 ug/ml F(ab′)2 Donkey anti-mouse IgM plus 2 ng/ml recombinant mouse IL4 in B Cell Media. Plates are incubated for 72 hours at 37° C. and 5% CO2. A volume of 15 μl of Alamar Blue reagent is added to each well and plates are incubated for 5 hours at 37 C and 5% CO2. Alamar Blue fluoresce is read at 560Ex/590Em, and IC50 or EC50 values are calculated using GraphPad Prism 5.

PI3Kγ = molecular target: T1, PI3Kγ (Homo sapiens, UniProt P48736); test: PI3 Kinase HTRF assay, PI3Kγ; format: biochemical; settings: 10 μM PIP2, 10 μM ATP; read-out: PI3K γ IC50
T1 construct: purchased Millipore Corporation 14-558-K
T1 sequence (P48736 whole entry): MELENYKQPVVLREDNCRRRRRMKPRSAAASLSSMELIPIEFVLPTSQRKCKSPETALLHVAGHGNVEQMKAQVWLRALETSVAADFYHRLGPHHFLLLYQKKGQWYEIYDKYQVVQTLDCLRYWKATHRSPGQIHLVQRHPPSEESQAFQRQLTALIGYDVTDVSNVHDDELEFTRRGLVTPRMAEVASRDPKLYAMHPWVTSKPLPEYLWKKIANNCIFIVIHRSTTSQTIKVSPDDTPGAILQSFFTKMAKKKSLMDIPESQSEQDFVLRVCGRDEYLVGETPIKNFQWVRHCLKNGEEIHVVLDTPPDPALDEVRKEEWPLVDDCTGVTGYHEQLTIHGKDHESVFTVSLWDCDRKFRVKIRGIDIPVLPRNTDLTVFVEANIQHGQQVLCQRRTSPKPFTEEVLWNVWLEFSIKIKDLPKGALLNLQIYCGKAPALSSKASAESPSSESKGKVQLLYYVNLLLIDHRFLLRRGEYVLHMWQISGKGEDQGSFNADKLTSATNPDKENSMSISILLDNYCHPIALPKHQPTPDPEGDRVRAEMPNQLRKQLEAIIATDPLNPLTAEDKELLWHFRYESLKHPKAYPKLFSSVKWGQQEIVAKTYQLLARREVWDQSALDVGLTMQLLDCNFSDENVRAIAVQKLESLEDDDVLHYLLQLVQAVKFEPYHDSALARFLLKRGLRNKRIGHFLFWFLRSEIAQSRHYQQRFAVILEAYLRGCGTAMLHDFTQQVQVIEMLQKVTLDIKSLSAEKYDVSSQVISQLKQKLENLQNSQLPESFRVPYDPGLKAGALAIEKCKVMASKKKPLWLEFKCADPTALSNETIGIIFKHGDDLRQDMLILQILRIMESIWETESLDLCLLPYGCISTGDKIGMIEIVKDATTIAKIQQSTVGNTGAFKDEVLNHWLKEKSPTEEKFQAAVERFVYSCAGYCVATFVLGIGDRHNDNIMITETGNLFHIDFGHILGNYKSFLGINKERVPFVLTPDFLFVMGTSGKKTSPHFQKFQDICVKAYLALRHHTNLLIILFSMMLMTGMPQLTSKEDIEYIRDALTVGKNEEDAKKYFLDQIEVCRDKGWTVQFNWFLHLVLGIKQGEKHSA
In short: (§1)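 Recombinant human PI3K isoform converts 10 μM PIP2 to PIP3 with 10 μM ATP, 1 h at room temperature after 15 min compound preincubation; 2% DMSO. PIP3 read by HTRF competition with biotin-PIP3/GST-GRP1 PH domain. IC50 from 12-point curve, 20 μM to 0.1 nM, nonlinear regression.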

PI3Kβ = molecular target: T2, PI3Kβ (Homo sapiens, UniProt P42338); test: PI3 Kinase HTRF assay, PI3Kβ; format: biochemical; settings: 10 μM PIP2, 10 μM ATP; read-out: PI3K β IC50
T2 construct: purchased Millipore Corporation 14-603-K
T2 sequence (P42338 whole entry): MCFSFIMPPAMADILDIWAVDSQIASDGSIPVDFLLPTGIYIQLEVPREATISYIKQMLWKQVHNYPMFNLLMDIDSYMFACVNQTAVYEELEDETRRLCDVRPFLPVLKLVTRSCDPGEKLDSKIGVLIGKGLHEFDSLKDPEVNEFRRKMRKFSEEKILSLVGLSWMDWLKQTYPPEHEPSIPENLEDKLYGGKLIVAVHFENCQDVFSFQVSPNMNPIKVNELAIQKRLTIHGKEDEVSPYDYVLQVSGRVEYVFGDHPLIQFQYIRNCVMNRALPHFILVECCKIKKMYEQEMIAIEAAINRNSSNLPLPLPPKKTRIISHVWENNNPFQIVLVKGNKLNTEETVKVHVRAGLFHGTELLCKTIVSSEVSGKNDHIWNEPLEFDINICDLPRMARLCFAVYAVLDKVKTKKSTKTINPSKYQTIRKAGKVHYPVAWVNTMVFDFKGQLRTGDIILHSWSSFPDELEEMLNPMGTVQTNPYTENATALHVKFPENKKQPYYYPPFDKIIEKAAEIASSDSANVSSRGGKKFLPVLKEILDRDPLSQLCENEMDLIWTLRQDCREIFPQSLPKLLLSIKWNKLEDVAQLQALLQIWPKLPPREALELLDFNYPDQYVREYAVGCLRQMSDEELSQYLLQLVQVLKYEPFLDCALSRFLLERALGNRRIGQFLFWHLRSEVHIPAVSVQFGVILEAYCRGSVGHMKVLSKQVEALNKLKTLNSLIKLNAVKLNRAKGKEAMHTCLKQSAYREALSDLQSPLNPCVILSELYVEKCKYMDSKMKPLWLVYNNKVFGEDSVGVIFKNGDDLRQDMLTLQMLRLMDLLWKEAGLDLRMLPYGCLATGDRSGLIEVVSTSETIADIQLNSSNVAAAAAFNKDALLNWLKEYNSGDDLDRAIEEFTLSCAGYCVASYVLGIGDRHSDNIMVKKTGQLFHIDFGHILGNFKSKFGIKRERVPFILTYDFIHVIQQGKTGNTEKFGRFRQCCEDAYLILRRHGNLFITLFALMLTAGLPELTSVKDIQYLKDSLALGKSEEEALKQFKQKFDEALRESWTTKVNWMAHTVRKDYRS
T2 sequence (P27986 whole entry partner): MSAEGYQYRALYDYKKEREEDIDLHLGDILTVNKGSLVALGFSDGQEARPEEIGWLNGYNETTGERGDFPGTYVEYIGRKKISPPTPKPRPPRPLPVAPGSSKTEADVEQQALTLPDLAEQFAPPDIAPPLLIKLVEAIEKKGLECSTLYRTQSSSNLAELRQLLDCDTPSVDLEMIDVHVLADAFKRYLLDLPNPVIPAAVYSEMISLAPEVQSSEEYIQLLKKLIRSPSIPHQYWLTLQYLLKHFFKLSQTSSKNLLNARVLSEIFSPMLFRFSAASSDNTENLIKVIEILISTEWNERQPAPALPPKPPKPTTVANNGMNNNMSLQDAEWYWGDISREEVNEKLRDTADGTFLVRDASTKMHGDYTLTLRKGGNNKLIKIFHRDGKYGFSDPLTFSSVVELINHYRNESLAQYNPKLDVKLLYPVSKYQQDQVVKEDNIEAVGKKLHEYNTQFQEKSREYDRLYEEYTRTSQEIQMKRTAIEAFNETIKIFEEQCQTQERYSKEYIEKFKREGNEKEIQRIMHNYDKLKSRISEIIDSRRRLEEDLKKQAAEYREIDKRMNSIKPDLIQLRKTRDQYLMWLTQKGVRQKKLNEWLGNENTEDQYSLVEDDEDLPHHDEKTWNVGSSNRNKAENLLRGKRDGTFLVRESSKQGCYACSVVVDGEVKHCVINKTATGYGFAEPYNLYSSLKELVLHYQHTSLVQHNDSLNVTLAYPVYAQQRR
In short: as §1

PI3Kα = molecular target: T3, PI3Kα (Homo sapiens, UniProt P42336); test: PI3 Kinase HTRF assay, PI3Kα; format: biochemical; settings: 10 μM PIP2, 10 μM ATP; read-out: PI3K α IC50
T3 construct: purchased Millipore Corporation 14-602-K
T3 sequence (P42336 whole entry): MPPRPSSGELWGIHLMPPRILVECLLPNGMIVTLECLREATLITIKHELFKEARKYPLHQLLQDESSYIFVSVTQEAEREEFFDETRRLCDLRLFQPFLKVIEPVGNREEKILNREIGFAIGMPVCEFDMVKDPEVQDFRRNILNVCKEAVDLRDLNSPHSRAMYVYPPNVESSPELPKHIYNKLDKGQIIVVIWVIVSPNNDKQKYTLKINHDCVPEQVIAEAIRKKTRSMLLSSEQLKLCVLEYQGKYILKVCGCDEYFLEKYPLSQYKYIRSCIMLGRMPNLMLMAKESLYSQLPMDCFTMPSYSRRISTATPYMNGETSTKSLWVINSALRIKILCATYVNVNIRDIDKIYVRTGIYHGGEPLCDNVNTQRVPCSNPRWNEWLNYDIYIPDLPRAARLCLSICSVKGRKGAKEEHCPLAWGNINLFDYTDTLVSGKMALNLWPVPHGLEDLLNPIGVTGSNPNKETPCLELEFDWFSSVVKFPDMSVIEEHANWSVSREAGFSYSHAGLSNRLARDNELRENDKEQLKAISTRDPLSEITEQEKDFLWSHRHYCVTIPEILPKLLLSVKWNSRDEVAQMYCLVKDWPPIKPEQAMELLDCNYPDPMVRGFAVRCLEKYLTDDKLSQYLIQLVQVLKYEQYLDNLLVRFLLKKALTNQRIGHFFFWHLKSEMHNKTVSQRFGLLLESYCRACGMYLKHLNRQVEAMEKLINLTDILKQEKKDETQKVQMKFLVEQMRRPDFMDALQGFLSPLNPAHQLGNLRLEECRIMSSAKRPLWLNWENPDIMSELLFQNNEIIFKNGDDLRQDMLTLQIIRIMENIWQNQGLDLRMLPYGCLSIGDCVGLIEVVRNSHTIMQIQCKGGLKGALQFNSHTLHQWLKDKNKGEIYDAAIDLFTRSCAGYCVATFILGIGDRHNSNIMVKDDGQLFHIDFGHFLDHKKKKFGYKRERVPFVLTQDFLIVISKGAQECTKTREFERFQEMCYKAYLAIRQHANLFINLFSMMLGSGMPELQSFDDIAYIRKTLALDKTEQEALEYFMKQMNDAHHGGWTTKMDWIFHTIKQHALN
T3 sequence (P27986 whole entry partner): as the sequence (P27986 whole entry partner) above
In short: as §1

PI3Kδ = molecular target: T4, PI3Kδ (Homo sapiens, UniProt O00329); test: PI3 Kinase HTRF assay, PI3Kδ; format: biochemical; settings: 10 μM PIP2, 10 μM ATP; read-out: PI3K δ IC50
T4 construct: purchased Millipore Corporation 14-604-K
T4 sequence (O00329 whole entry): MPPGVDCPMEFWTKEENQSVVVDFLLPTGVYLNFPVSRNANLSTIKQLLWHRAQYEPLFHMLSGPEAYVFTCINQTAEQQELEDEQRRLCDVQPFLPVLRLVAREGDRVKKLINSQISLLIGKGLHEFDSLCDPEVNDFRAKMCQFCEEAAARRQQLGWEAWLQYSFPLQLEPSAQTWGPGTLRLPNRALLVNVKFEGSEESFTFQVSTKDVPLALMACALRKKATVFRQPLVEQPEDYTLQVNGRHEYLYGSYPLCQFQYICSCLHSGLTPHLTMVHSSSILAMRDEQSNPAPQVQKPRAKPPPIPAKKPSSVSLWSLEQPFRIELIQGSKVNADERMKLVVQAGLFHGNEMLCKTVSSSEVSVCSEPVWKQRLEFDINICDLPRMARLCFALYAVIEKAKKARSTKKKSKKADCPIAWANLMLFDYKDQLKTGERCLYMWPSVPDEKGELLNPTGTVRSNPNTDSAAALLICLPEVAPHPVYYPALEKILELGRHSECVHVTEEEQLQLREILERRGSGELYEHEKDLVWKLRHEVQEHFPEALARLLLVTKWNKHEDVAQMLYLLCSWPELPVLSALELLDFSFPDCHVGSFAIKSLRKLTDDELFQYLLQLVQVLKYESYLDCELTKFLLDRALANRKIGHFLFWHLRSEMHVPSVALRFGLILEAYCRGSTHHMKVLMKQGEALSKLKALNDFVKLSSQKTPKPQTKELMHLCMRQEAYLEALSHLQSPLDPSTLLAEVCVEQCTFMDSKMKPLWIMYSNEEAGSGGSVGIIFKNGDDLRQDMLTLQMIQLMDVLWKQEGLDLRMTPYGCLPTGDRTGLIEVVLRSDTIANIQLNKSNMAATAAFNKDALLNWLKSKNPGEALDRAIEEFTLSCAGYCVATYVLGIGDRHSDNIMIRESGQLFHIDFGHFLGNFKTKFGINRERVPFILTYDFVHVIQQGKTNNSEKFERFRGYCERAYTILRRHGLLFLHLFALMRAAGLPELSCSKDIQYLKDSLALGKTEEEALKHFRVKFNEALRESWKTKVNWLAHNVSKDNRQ
T4 sequence (P27986 whole entry partner): as the sequence (P27986 whole entry partner) above
In short: as §1

IC50 (PI3Kγ) [µM]	IC50 (PI3Kβ) [µM]	IC50 (PI3Kα) [µM]	IC50 (PI3Kδ) [µM]	Structure (SMILES)	IC50 (Balb/c splenic B cells) [µM]
< 1	< 1	< 10	< 0.1	C[C@H](Nc1ncnc2[nH]cnc12)c1cc2cccc(Cl)c2c([S+]([O-])CCN2CCOCC2)n1 (stereo partly shown) [Compound 129]	< 1
< 1	< 10	< 10	< 1	C[C@H](Nc1ncnc2[nH]cnc12)c1cc2cccc(Cl)c2c(CN2CCC(F)(F)C2)n1 [Compound 8]	< 1
< 10	> 10	> 10	< 0.1	C[C@H](Nc1ncnc2[nH]cnc12)c1cc2cccc(-c3cnn(C)c3)c2c(C(=O)N2CCOCC2)n1 [Compound 185]	< 0.1
< 10	< 10	< 10	< 0.1	C[C@H](Nc1ncnc2ccccc12)c1cc2cccc(Cl)c2c(CCN2CCOCC2)n1 [Compound 74]	< 1
< 0.1	< 10	> 10	< 0.1	C[C@H](Nc1ncnc2[nH]cnc12)c1cc2cccc(Cl)c2c(C(=O)N2CCOCC2)n1 [Compound 13]	< 0.1
< 1	> 10	> 10	< 0.1	C[C@H](Nc1ncnc2[nH]cnc12)c1cc2cccc(Cl)c2c(C(=O)N2CC(F)(F)C2)n1 [Compound 21]	< 0.1
> 10	< 10	> 10	< 0.1	C[C@H](Nc1ncnc2[nH]cnc12)c1cc2cccc(Cl)c2c(N2CCN(C)CC2)n1 [Compound 46, (S)—N-(1-(8-chloro-1-(4-methylpiperazin-1-yl)isoquinolin-3-yl)ethyl)-9H-purin-6-amine]	< 0.1
< 10	> 10	< 10	< 0.1	C[C@H](Nc1ncnc2[nH]cnc12)c1cc2c(F)ccc(Cl)c2c(CCN2CCOCC2)n1 [Compound 68]	< 0.1
> 10	< 10	> 10	< 0.1	C[C@H](Nc1ncnc2[nH]cnc12)c1cc2cccc(Cl)c2c(SCCN2CCCC2)n1 [Compound 135]	< 1
< 10	< 10	< 10	< 0.1	CC(C)N1CCN(c2nc([C@H](C)Nc3ncnc4[nH]cnc34)cc3cccc(Cl)c23)CC1 [Compound 90]	< 0.1
< 10	< 10	< 10	< 0.1	C[C@H](Nc1ncnc2[nH]cnc12)c1cc2cccc(Cl)c2c([S+]([O-])CCN2CCCC2)n1 (stereo partly shown) [Compound 136]	< 0.1
< 1	< 10	> 10	< 0.1	C[C@H](Nc1ncnc2[nH]cnc12)c1cc2cccc(Cl)c2c(C(=O)N2CC3CCC(C2)O3)n1 [Compound 19]	< 0.1
< 10	> 10	> 10	< 0.1	C[C@H](Nc1ncnc2[nH]cnc12)c1cc2cccc(Cl)c2c(CN2CCOCC2)n1 [Compound 7]	< 0.1
< 10	< 10	> 10	< 0.1	C[C@H](Nc1ncnc2[nH]cnc12)c1cc2cccc(Cl)c2c(C(=O)Nc2ccccc2)n1 [Compound 25]	< 1
< 1	< 1	< 10	< 0.1	C[C@H](Nc1ncnc2[nH]cnc12)c1cc2cccc(Cl)c2c(SCCN2CCOCC2)n1 [Compound 93, (S)—N-(1-(8-chloro-1-(2-morpholinoethylthio)isoquinolin-3-yl)ethyl)-9H-purin-6-amine]	< 0.1
> 10	< 10	> 10	< 0.1	Cc1cccc2cc([C@H](C)Nc3ncnc4[nH]cnc34)nc(OCCN3CCCC3)c12 [Compound 145]	< 0.1
< 10	< 1	< 10	< 0.1	C[C@H](Nc1ncnc2scnc12)c1cc2cccc(Cl)c2c(N2CCN(C)CC2)n1 [Compound 98]	< 0.1

The remaining lines, values behind:

Structure (SMILES)	IC50 (PI3Kγ) [µM]	IC50 (PI3Kβ) [µM]	IC50 (PI3Kα) [µM]	IC50 (PI3Kδ) [µM]	IC50 (Balb/c splenic B cells) [µM]
C[C@H](Nc1ccnc2ccnn12)c1cc2cccc(Cl)c2c(CCN2CCOCC2)n1 [Compound 73]	< 10	< 1	< 10	< 0.1	< 0.1
CCN1CCC(NC(=O)c2nc([C@H](C)Nc3ncnc4scnc34)cc3cccc(Cl)c23)CC1 [Compound 212]	< 10	< 10	< 10	< 0.1	< 0.1
Cc1cccc2cc([C@H](C)Nc3ncnc4cccnc34)nc(N3CCN(C)CC3)c12 [Compound 164]	< 10	< 10	< 10	< 0.1	< 0.1
CC(C)N1CCC(Oc2nc([C@H](C)Nc3ncnc4cccnc34)cc3cccc(-c4cnn(C)c4)c23)CC1 [Compound 160]	< 10	> 10	< 10	< 0.1	< 0.1
C[C@H](Nc1ncnc2scnc12)c1cc2cccc(Cl)c2c(C(=O)N2CCC(F)(F)CC2)n1 [Compound 228]	< 10	< 10	< 10	< 0.1	< 0.1
Cc1cccc2cc([C@H](C)Nc3ncnc4[nH]cnc34)nc(C(=O)N3C4CCC3COC4)c12 [Compound 149]	< 10	> 10	> 10	< 0.1	< 0.1
Cc1cccc2cc([C@H](C)Nc3ncnc4cccnc34)nc(CCN3CCOCC3)c12 [Compound 165]	< 10	> 10	< 10	< 0.1	< 0.1
C[C@H](Nc1ncnc2[nH]cnc12)c1cc2cccc(Cl)c2c(OCC(=O)N2CCN(C)CC2)n1 [Compound 42]	> 10	< 10	> 10	< 0.1	< 1
CC(C)N1CCC(Oc2nc([C@H](C)Nc3ncnc4cccnc34)cc3cccc(Cl)c23)CC1 [Compound 108]	< 0.1	> 10	< 10	< 0.1	< 1
C[C@H](Nc1ccnn2ccnc12)c1cc2cccc(Cl)c2c(C(=O)N2C3CCC2COC3)n1 [Compound 189]	< 10	< 10	> 10	< 0.1	< 0.1
C[C@H](Nc1ncnc2[nH]cnc12)c1cc2cccc(Cl)c2c(C(=O)N2C3CCC2COC3)n1 [Compound 16]	< 10	< 10	> 10	< 0.1	< 0.1
C[C@H](Nc1ccnn2ccnc12)c1cc2cccc(Cl)c2c(C(=O)NC2CCOCC2)n1 [Compound 180]	> 10	> 10	> 10	< 0.1	< 0.1
CC(C)N1CCC(Oc2nc([C@H](C)Nc3ncnc4scnc34)cc3cccc(Cl)c23)CC1 [Compound 122]	< 10	< 10	< 10	< 0.1	< 1
C[C@H](Nc1ncnc2[nH]cnc12)c1cc2cccc(Cl)c2c(CC(=O)N2CCN(C)CC2)n1 [Compound 37]	> 10	> 10	> 10	< 1	< 1
C[C@H](Nc1ncnc2scnc12)c1cc2cccc(Cl)c2c(C(=O)N2CCOCC2)n1 [Compound 116]	< 1	< 1	< 10	< 0.1	< 0.1
C[C@H](Nc1ncnc2scnc12)c1cc2cccc(Cl)c2c(C(=O)NC2CCC(O)CC2)n1 (stereo partly shown) [Compound 214]	< 10	> 10	< 10	< 0.1	< 0.1
C[C@H](Nc1ncnc2scnc12)c1cc2cccc(Cl)c2c(OC2CCN(S(C)(=O)=O)CC2)n1 [Compound 172]	< 10	< 10	> 10	< 0.1	< 1
C[C@H](Nc1ccnn2ccnc12)c1cc2cccc(Cl)c2c(OCCN2CCCC2)n1 [Compound 182]	> 10	> 10	> 10	< 0.1	< 1
